# Results from ChEMBL document CHEMBL4049412, “Evolution of matrinic ethanol derivatives as anti-HCV agents from matrine skeleton” (Bioorg Med Chem Lett, 2017).
# Assays:
# Hepatitis C virus = assay: Antiviral activity against Hepatitis C virus infected in human Huh7.5 cells assessed as reduction in viral RNA level after 72 hrs by RT-PCR method; type: functional, cell-based, Hepacivirus hominis; settings: Huh7.5, 72 h
# [1] = Cytotoxicity against human Huh7.5 cells after 72 hrs by MTT assay; type: cell-based
# [2] = Selectivity index, ratio of CC50 for human Huh7.5 cells to EC50 for Hepatitis C virus infected in human Huh7.5 cells; type: toxicity, cell-based; settings: read-out: Ratio CC50/EC50
# [3] = Acute toxicity in Kunming mouse administered as single oral dose measured for 7 days; settings: in vivo
# [4] = Tmax in Sprague-Dawley rat at 25 mg/kg, po administered as single dose; type: ADME, organism-based; settings: in vivo
# [5] = Cmax in Sprague-Dawley rat at 25 mg/kg, po administered as single dose; type: ADME, organism-based; parameters: dose 25 mg/kg, route oral; settings: in vivo
# [6] = AUC (0 to t) in Sprague-Dawley rat at 25 mg/kg, po administered as single dose; type: ADME, organism-based; settings: in vivo
# [7] = AUC (0 to infinity) in Sprague-Dawley rat at 25 mg/kg, po administered as single dose; type: ADME, organism-based; parameters: dose 25 mg/kg, route oral, time infinity; settings: in vivo
# [8] = Mean residence time in Sprague-Dawley rat at 25 mg/kg, po administered as single dose; type: ADME, organism-based; settings: in vivo
# [9] = Half life in Sprague-Dawley rat at 25 mg/kg, po administered as single dose; type: ADME, organism-based; settings: in vivo
Compound,EC50 (Hepatitis C virus) [µM],CC50 at 72 h [1] [µM],selectivity ratio [2],LD50 at 168 h [3] [mg/kg],Tmax [4] [h],Cmax [5] [µM],AUC(0-t) [6] [nM·h],AUC(0-inf) [7] [nM·h],MRT [8] [h],half-life [9] [h]
COc1ccc(CN2C[C@@H]3CCCN4CCC[C@@H]([C@H]34)[C@H]2CCCC(=O)O)cc1,22.7,> 500,> 22,,,,,,,
O=C(O)C[C@@H]1[C@H]2CCCN3CCC[C@@H](CN1Cc1ccc(C(F)(F)F)cc1)[C@@H]23,> 167,244,,,,,,,,
COc1ccc(CN2C[C@@H]3CCCN4CCC[C@@H]([C@H]34)[C@H]2CCO)cc1,3.2,309,96.6,> 250,0.33,0.31,500,560,1.6,2.08
COC(=O)C[C@@H]1[C@H]2CCCN3CCC[C@@H](CN1C(=O)c1ccc(OC)cc1)[C@@H]23,3.03,> 500,> 165,,,,,,,
CCCN1C[C@@H]2CCCN3CCC[C@@H]([C@H]23)[C@H]1CCO,4.95,> 500,> 101,,,,,,,
CCOc1ccc(CN2C[C@@H]3CCCN4CCC[C@@H]([C@H]34)[C@H]2CC(=O)OC)cc1OC,8.06,> 500,> 62,,,,,,,
Cc1ccc(CN2C[C@@H]3CCCN4CCC[C@@H]([C@H]34)[C@H]2CC(=O)O)cc1,47.5,> 500,> 10.5,,,,,,,
O=C(O)C[C@@H]1[C@H]2CCCN3CCC[C@@H](CN1Cc1ccc([N+](=O)[O-])cc1)[C@@H]23,104,> 500,> 4.81,,,,,,,
COc1cccc(CN2C[C@@H]3CCCN4CCC[C@@H]([C@H]34)[C@H]2CCO)c1OC,6.71,305,45.5,,,,,,,
OCC[C@@H]1[C@H]2CCCN3CCC[C@@H](CN1Cc1ccc(F)cc1F)[C@@H]23,5.18,217,41.9,,,,,,,
O=C(O)C[C@@H]1[C@H]2CCCN3CCC[C@@H](CN1Cc1ccc(Cl)c(Cl)c1)[C@@H]23,21.2,141,6.65,,,,,,,
COC(=O)C[C@@H]1[C@H]2CCCN3CCC[C@@H](CN1Cc1ccccc1C)[C@@H]23,7.14,230,32.2,,,,,,,
COc1ccc(C(=O)N2C[C@@H]3CCCN4CCC[C@@H]([C@H]34)[C@H]2CCCC(C)(C)O)cc1,24.6,362,14.7,,,,,,,
COC(=O)C[C@@H]1[C@H]2CCCN3CCC[C@@H](CN1Cc1ccc(F)cc1F)[C@@H]23,1.09,128,118,,,,,,,
O=C(O)C[C@@H]1[C@H]2CCCN3CCC[C@@H](CN1Cc1ccccc1)[C@@H]23,114,> 500,> 4.39,,,,,,,
CCOc1ccc(CN2C[C@@H]3CCCN4CCC[C@@H]([C@H]34)[C@H]2CCO)cc1OC,5.36,> 500,> 93.3,,,,,,,
COC(=O)C[C@@H]1[C@H]2CCCN3CCC[C@@H](CN1Cc1ccc(OC)cc1)[C@@H]23,7.81,392,50.2,> 250,0.5,0.36,670,690,2.25,6.36
COc1ccc(CN2C[C@@H]3CCCN4CCC[C@@H]([C@H]34)[C@H]2CC(=O)O)cc1,27.6,> 500,> 18.1,> 500,0.42,4.96,8590,8590,2.16,2.54
O=C(O)C[C@@H]1[C@H]2CCCN3CCC[C@@H](CN1Cc1ccncc1)[C@@H]23,47.2,> 500,> 10.6,,,,,,,
O=[N+]([O-])c1ccc(CN2C[C@@H]3CCCN4CCC[C@@H]([C@H]34)[C@H]2CCO)cc1,3.5,118,33.7,,,,,,,
Cc1cccc(CN2C[C@@H]3CCCN4CCC[C@@H]([C@H]34)[C@H]2CC(=O)O)c1,86.4,> 500,> 5.78,,,,,,,
COC(=O)C[C@@H]1[C@H]2CCCN3CCC[C@@H](CN1Cc1ccc(C)cc1)[C@@H]23,2.29,215,93.7,,,,,,,
CCCCN1C[C@@H]2CCCN3CCC[C@@H]([C@H]23)[C@H]1CCO,2.58,> 500,> 193,,,,,,,
